Measured values published in patent US20250074910A1, “MENIN INHIBITOR AND USE THEREOF” (HITGEN INC., priority 2021, published 2025).

Columns and labels:
[1] = Stability in mouse liver microsomes; type: in vitro ADME; conditions: 1.00 μM compound, NADPH; for half-life at 1 μM: liver microsomes, pH 7.4, 0.5 mg/mL microsomal protein, read-out: Half life T1/2, mouse liver microsomes
Protocol: (§1) Test Example 3: Test of Stability of Compounds in Liver Microsome
(§2) Test purpose: To determine the stability of some of the compounds of the present disclosure in mouse, dog and human liver microsomes by LC-MS/MS method.
(§3) Test materials: The test drugs were in-house prepared example compounds of the present disclosure; the positive reference compound SNDX-5613 was prepared by the method of Example 253 in patent WO2017214367; the control compound 1 was prepared by the method of Example 64 in WO2017214367; liver microsomes were purchased from CORNING.
(§4) The total volume of each incubation system was approximately 45 μL, and the medium was 100 mM phosphate buffer (PBS, pH 7.4), including liver microsomal protein at a final concentration of 0.5 mg/mL, 1.00 μM compound and 2.00 mM NADPH, and the organic phase content was <1%. Incubation was performed in a 37° C. incubator, and 135 μL of ice-cold acetonitrile was added after 0, 5, 15, 30 and 60 min of reaction to terminate the reaction. The positive control group was incubated with 1.00 μM Ketanserin, 0.5 mg/mL liver microsomal protein and 2.00 mM NADPH in a 37° C. incubator for 0, 5, 15, 30 and 60 min respectively, and then 135 μL of ice-cold acetonitrile was added to terminate the reaction. The 96-well plates were shaken at 600 rpm for 10 min and then centrifuged at 4700 rpm at 4° C. for 15 min. 80 μL of supernatant was mixed with 320 μL of pure water, and the remaining amount of the compound was detected by LC-MS/MS method. The in vitro half life (T½) and intrinsic clearance (CLint) were calculated according to the following formula:
(§5) Intrinsic clearance (Clint)=(0.693/T1/2)×(1/liver microsome concentration)×conversion factor. k is the linear regression slope of the remaining percentage of the ln compound-incubation time.

MV4-11 = assay: Cell proliferation inhibition (CellTiter-Glo), MV4-11; type: cell-based; conditions: MV4-11 cells
Summary of the method: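 IC50 values come from dose-response fitting of CellTiter-Glo luminescence after 72-168 h compound exposure (final 1 nM-10 μM) at 37° C and 5% CO2, with 5,000-20,000 cells plated per well.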

[2] = Stability in dog liver microsomes; type: in vitro ADME; conditions: 0.5 mg/mL microsomal protein, 1.00 μM compound, NADPH; for half-life at 1 μM: dog, liver microsomes, pH 7.4, Dog, read-out: Half life T1/2, dog liver microsomes
Protocol: as §1, §2, §3, §4, §5

MOLM-13 = assay: Cell proliferation inhibition (CellTiter-Glo), MOLM-13; type: cell-based; conditions: MOLM-13 cells
Protocol: (§6) Test Example 2: Test of the Inhibitory Ability of Menin-MLL Interaction Inhibitors on Cell Proliferation
(§7) The inhibitory ability of the compounds of the present disclosure on the proliferation of tumor cell lines (including cell lines containing MLL fusion protein such as MV4-11, MOLM-13, THP-1 and NOMO-1, control cell lines without MLL fusion protein such as HL-60, K562 and MOLM-16, and cell lines containing NPM1 mutation such as OCI-AML3) was evaluated by using the cell viability analysis method. The cells were plated in 96-well plates at a certain concentration (e.g., 5,000-20,000 cells/well), and then an equal volume of culture medium containing 2 times the final concentration of the test compound (the final concentration ranging 10 from 1 nM to 10 μM) was added. The plates were placed in an incubator and cultured at 37° C. and 5% CO2 for 72-168 h. Before the test, an equal volume of CellTiter-Glo® Luminescent reagent was added, and the plate was incubated at room temperature for 10 min before detection using an ELISA reader (BMG LABTECH). The data were analyzed using GraphPad Prism software to obtain the IC50 value and compound fitting curve. The control compound 1 was prepared by referring to the method of Example 64 in WO2017214367.

[3] = Stability in human liver microsomes; type: in vitro ADME; conditions: 0.5 mg/mL microsomal protein, 1.00 μM compound, NADPH; for half-life at 1 μM: human, liver microsomes, pH 7.4, Human, read-out: Half life T1/2, human liver microsomes
Protocol: as §1, §2, §3, §4, §5

OCI-AML3 = assay: Cell proliferation inhibition (CellTiter-Glo), OCI-AML3 (NPM1 mutation); type: cell-based; conditions: OCI-AML3 cells
Protocol: as §6, §7

[4] = target: Menin/MLL-4-43 peptide interaction (Homo sapiens (Human), UniProt O00255); assay: Menin-MLL interaction inhibitory activity assay (fluorescence polarization competition); type: binding; conditions: FITC-MLL4-43-peptide, Menin recombinant protein
Sequence of Menin/MLL-4-43 peptide interaction (O00255 whole entry, species assumed): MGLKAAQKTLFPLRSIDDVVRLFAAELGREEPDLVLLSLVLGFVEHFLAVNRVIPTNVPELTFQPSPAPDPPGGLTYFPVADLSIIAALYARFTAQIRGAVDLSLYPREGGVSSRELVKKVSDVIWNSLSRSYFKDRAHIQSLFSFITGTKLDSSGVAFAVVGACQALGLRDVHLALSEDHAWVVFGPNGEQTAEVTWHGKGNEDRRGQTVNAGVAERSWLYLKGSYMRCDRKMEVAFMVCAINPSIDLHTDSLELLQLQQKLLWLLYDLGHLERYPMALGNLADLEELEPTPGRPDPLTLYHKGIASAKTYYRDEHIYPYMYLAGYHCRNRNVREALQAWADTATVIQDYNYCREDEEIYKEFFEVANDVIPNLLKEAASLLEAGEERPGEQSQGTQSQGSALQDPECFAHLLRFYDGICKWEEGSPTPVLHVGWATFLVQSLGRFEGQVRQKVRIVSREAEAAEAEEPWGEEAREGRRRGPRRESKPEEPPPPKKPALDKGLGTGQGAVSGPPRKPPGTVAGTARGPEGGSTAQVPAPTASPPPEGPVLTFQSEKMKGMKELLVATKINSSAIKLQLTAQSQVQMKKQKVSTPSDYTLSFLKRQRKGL
Summary of the method: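 Menin (8 nM solution) was preincubated 15 min with compound, then FITC-MLL4-43 peptide (10 nM solution) was added and shaken for 60 min at 25 °C. The buffer was 50 mM Tris pH 7.5, 50 mM NaCl, 1 mM DTT. IC50 was derived from fluorescence polarization read at 485/520 nm.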

[5] = target: hERG potassium ion channel (Homo sapiens (Human), UniProt Q12809); assay: hERG potassium channel effect test (manual patch clamp, HEK293 cells overexpressing hERG); type: cell-based
Sequence of hERG potassium ion channel (Q12809 whole entry): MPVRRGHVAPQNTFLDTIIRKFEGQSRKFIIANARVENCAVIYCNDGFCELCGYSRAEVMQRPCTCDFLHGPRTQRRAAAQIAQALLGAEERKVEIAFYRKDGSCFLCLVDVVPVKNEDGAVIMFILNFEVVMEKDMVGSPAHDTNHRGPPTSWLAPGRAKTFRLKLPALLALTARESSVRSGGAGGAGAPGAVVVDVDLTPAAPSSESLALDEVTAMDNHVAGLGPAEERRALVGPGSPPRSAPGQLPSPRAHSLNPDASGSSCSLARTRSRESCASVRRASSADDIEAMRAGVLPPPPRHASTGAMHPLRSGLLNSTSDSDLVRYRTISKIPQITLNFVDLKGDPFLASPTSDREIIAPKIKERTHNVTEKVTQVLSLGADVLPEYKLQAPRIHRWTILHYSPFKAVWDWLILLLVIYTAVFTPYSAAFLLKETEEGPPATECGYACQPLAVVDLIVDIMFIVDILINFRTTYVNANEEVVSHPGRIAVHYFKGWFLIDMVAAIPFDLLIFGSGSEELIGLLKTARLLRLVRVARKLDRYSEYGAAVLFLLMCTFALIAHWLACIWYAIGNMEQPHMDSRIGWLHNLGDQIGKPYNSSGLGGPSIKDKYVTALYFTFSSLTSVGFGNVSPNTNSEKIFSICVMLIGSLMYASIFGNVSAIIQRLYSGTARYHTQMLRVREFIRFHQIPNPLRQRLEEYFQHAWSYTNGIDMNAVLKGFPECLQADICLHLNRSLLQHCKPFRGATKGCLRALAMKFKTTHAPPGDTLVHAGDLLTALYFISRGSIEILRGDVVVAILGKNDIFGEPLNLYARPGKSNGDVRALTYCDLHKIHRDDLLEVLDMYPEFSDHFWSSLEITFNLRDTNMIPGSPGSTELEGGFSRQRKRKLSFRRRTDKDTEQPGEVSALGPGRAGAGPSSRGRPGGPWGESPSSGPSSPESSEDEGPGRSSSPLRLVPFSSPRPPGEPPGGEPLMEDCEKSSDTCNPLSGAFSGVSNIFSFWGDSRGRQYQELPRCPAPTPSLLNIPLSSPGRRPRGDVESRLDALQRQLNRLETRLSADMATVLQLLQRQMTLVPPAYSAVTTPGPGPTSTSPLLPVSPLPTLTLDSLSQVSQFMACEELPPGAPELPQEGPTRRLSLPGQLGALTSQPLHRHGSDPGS
Protocol: Test Example 6: hERG Potassium Channel Effect Test
The hERG inhibition test was performed on some of the example compounds of the present disclosure using the manual electrophysiological patch clamp method. The cell line was derived from HEK293 cells that overexpressed hERG potassium ion channels. The specific experimental protocol was developed by PharmaCore Labs with reference to literature published in peer-reviewed journals and was performed by PharmaCore Labs in accordance with its standard experimental operating procedures. The highest test concentration was 30 μM.

| Structure (SMILES) | half-life at 1 μM [1] [h] | GI50 (MV4-11; 72 h) [nM] | half-life at 1 μM [2] [h] | GI50 (MOLM-13; Homo sapiens, MOLM-13, 168 h) [nM] | half-life at 1 μM [3] [h] | GI50 (OCI-AML3; Homo sapiens, OCI-AML-3, 168 h) [nM] | IC50 [4] [nM] | Half life T1/2, mouse liver microsomes ([1]; 0.5 mg/mL microsomal protein) [h] | Half life T1/2, dog liver microsomes ([2]; Dog) [h] | GI50 (MOLM-13; 168 h) [nM] | Half life T1/2, human liver microsomes ([3]; Human) [h] | GI50 (OCI-AML3; 168 h) [nM] | GI50 (MV4-11; Homo sapiens, MV4-11, 72 h) [nM] | inhibition at 30 μM ([5]; human, HEK293 cells overexpressing hERG potassium ion channels, 30 μm, read-out: Average inhibition rate of hERG current at the highest compound tested concentration) [%] | IC50 ([5]; manual patch clamp, highest test concentration 30 μM) [nM] |
| --- | --- | --- | --- | --- | --- | --- | --- | --- | --- | --- | --- | --- | --- | --- | --- |
| [2H]C([2H])([2H])C1C[C@]2(CC[C@@H](CN3CCC4(CC3)CN(c3ncnnc3Oc3ccc(F)cc3C(=O)N(C(C)C)C(C)C)C4)CC2)NC1=O (single isomer, unassigned) [Example 43-1] | 1.17 | 27.8 | 0.59 | 133 | 0.582 | 92 | 12.4 |  |  |  |  |  |  |  |  |
| CCN(C(=O)c1cc(F)ccc1Oc1nncnc1N1CC2(CCN(C[C@H]3CC[C@]4(CC3)CC(C(C)(C)O)C(=O)N4)CC2)C1)C(C)C (single isomer, unassigned) [Example 58-1b] |  | 18 |  |  |  |  | 5.9 | >2 | 1.14 | 56.9 | 0.593 | 30.2 |  |  |  |
| CCN(C(=O)c1cc(F)ccc1Oc1nncnc1N1CC2(CCN(C[C@H]3CC[C@@]4(CCC(=O)N4)CC3)CC2)C1)C(C)C [Example 7] | > 2 |  | 1 | 389 | 1.3 | 323 | 62.1 |  |  |  |  |  | 137 |  |  |
| CC1C[C@]2(CC[C@@H](CN3CCC4(CC3)CN(c3ncnnc3Oc3ccc(F)cc3C(=O)N(C(C)C)C(C)C)C4)CC2)NC1=O (some centres unmarked) [Example 41-1] |  |  |  | 52.7 |  | 64.1 | 10.8 |  |  |  |  |  | 25.5 | 13.2 | > 30000 |
| CCN(C(=O)c1cc(F)ccc1Oc1nncnc1N1CC2(CCN(C[C@H]3CC[C@]4(CC3)CC(C)(C)C(=O)N4)CC2)C1)C(C)C [Example 26] | 1.33 |  | 1.04 | 162 | 0.618 | 94 | 7.4 |  |  |  |  |  | 19.2 |  |  |
| CCN(C(=O)c1cc(F)ccc1Oc1nncnc1N1CC2(CCN(CC3CCC4(CC3)CN(C)C(=O)N4)CC2)C1)C(C)C (single isomer, unassigned) [Example 46-1] | > 2 |  | > 2 | 329 | 1.31 | 140 | 35.3 |  |  |  |  |  | 100 |  |  |
| CCN(C(=O)c1cc(F)ccc1Oc1nncnc1N1CC2(CCN(C[C@H]3CC[C@]4(CC3)C[C@@H](COC)C(=O)N4)CC2)C1)C(C)C [Example 37-2] | > 2 |  | 1.5 | 46.5 | 1.09 | 40.9 | 3.3 |  |  |  |  |  | 15.2 |  |  |
| CCN(C(=O)c1cc(F)ccc1Oc1nncnc1N1CC2(CCN(C[C@H]3CC[C@]4(CC3)CC3(CCOCC3)C(=O)N4)CC2)C1)C(C)C [Example 45] | > 2 |  | 1.53 | 54.1 | 0.618 | 48.4 | 2.5 |  |  |  |  |  | 12.7 |  |  |
| CC(C)N(C(=O)c1cc(F)ccc1Oc1nncnc1N1CC2(CCN(C[C@H]3CC[C@@]4(CCC(=O)N4)CC3)CC2)C1)C(C)C [Example 8] | 1.11 |  | 1.56 | 96.4 | 0.786 | 142 | 67.2 |  |  |  |  |  | 197 |  |  |
| [2H]C([2H])([2H])C1C[C@]2(CC[C@@H](CN3CCC4(CC3)CN(c3ncnnc3Oc3ccc(F)cc3C(=O)N(CC)C(C)C)C4)CC2)NC1=O (single isomer, unassigned) [Example 42-1] | > 2 |  | 1.33 | 216 | 0.757 | 111 | 15.3 |  |  |  |  |  | 45.4 |  |  |
| CCN(C(=O)c1cc(F)ccc1Oc1nncnc1N1CC2(CCN(C[C@H]3CC[C@]4(CC3)CC(C(C)(C)O)C(=O)N4)CC2)C1)C(C)C (single isomer, unassigned) [Example 58-1a] | > 2 |  | 1.16 | 54.4 | 0.396 | 22.9 | 5.4 |  |  |  |  |  | 17.7 |  |  |
| CC(C)N(C(=O)c1cc(F)ccc1Oc1nncnc1N1CC2(CCN(C[C@H]3CC[C@]4(CC3)CC(C(C)(C)O)C(=O)N4)CC2)C1)C(C)C (single isomer, unassigned) [Example 59-1b] | 1.65 | 9.5 | 1.17 |  | 0.479 |  | 10.3 |  |  | 34.3 |  | 20.1 |  |  |  |
